# According to patent US9028856B2, “Synergistic pesticide compositions” (priority 2008, dated 2015):
# Tests used:
# [1] = test system: Musca domestica, susceptible strain WHO(N); experiment: Topical insecticide application to houseflies; type: in vivo; details: 0.5 μl per fly, % a.i. conc. in acetone, Table 95
# Protocol: Male Musca domestica, susceptible strain WHO(N), or other strains were used.
# The flies were anaesthetized with CO2, and ten individuals were positioned (on their back) on a filter paper which was on the top of a carbon dioxide emitting device. […]
# Afterwards the insects were transferred into a beaker closed by a gauze lid with a water saturated cotton pad on the top.
# At regular intervals, mortality was recorded (cumulatively).
# [2] = test system: Musca domestica, susceptible strain WHO(N); experiment: Contact efficacy against houseflies on filter papers in glass dishes; type: in vivo; details: % a.i. conc. in acetone on filter papers, Table 97
# Protocol: Male Musca domestica, susceptible strain WHO(N), were used.
# A solution of the active ingredient in acetone was prepared. A concentration row was made. After evaporation of the acetone (30′), the dishes were closed by a glass lid and transferred into the test room. One day later twenty flies, anaesthetized with CO2, are counted into each dish. At regular intervals, knock down was recorded (cumulatively). Each test consisted of one replicate. […]
# [3] = test system: Aedes aegypti mosquito; experiment: USDA Petri Dish Method, 3 min exposure to treated glazed tile; type: in vivo; details: Aedes aegypti, glazed tile, 3 min exposure
# Procedure, shortened: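 USDA Petri Dish screen: groups of twenty female Aedes aegypti (4-6 days old) held 3 minutes on dried acetone-based treatments (with/without adjuvant), then transferred to untreated card. Replicated three or more times; knockdown followed over time, mortality recorded 24 hours post-exposure with sucrose-soaked cotton available.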
# [4] = test system: Argentine ant, Linepithema humile; experiment: Knockdown/mortality of ant workers under continuous exposure on treated glazed tile
# Procedure, shortened: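 0.5% AI imidacloprid in acetone, alone or with 0.1, 1.0 or 5.0% additive (benzenepropanoic acid, oleic acid, methyl oleate, methyl linoleate, methyl palmitate or BHA), 1 ml dried overnight on glazed tile (~161 cm^2). Ten workers confined under continuous exposure, water from 3 h; knockdown/mortality scored at intervals and 24 h; ≥3 replicates.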
# [5] = octanol-water partition coefficient (Log K ow), Table 1; cited from earlier work
# [6] = type: physicochemical; details: classified from Log P
# From the text: As used herein, a “partition coefficient” is defined as the ratio of concentrations of an un-ionized compound between solutions of water and octanol. To measure the partition coefficient of ionizable solutes, the pH of the aqueous phase is adjusted such that the predominant form of the compound is un-ionized. The logarithm of the ratio of the concentrations of the un-ionized solute in the solvents is referred to herein as log P or log K ow.
# As noted herein, the octanol-water partition coefficient may be used to identify the cuticular penetration of a particular active ingredient. One factor in the relative speed through which any insecticide acts is the insecticide's ability to cross the insect cuticle. A determining factor for cuticle penetration is Log K ow, also known as Log P. Log K ow (Log P) is the octanol-water partition coefficient for a neutral molecule. Log P is used hereinfurther, but, as noted above, the term is synonymous with Log K ow. As previously noted, the cuticular penetration of any particular active ingredient as against a plant cuticle is not indicative of that same active ingredient's ability to penetrate an insect cuticle.
# The cuticular penetration of a compound is classified as “INTERMEDIATE” when the Log P value is between about 2.0 and about 4.0.
# [7] = test system: Red Imported Fire ant (RIFA), Solenopsis invicta; experiment: Knockdown/mortality of ant workers under continuous exposure on treated glazed tile; type: in vivo; details: fipronil 0.01% AI with or without adjuvant
# From the text: (§1) Treatments were allowed to dry overnight. […] Treatments were replicated minimum three times.
# (§2) Treatments were allowed to dry overnight. […] Treatments were replicated a minimum of three times.
# [8] = test system: Culex quinquefasciatus mosquito; experiment: USDA Petri Dish Method, 3 min exposure to treated glazed tile (twenty 4-6 day old females); type: in vivo; details: fipronil 0.01% AI with or without adjuvant
# Protocol: MATERIALS AND METHODS: Solutions of resmethrin at 1 and 0.5% AI were prepared with and without adjuvant in acetone. […] USDA Petri Dish Method was used as initial screening protocol. Twenty, 4-6 day old female Culex quinquefasciatus mosquitoes were exposed to each treatment for 3 minutes and then moved to a clean untreated white paper index card. Treatments were replicated a minimum of three times. Mosquito knockdown was evaluated at 3 minute intervals for the first 15 minutes and then at 5 minute intervals for the remainder of an hour. A small cotton ball soaked in sucrose solution was added on the screen top of the petri-dish as a drinking source after the 2 hour evaluation. Mortality was evaluated at 24 hours after exposure.
# (§3) Treatments were allowed to dry overnight. USDA Petri Dish Method was used as initial screening protocol. Twenty, 4-6 day old female Culex mosquitoes were exposed to each treatment for 3 minutes and then moved to a clean untreated white paper index card. Treatments were replicated a minimum of three times. Mosquito knockdown was evaluated at various intervals through 3 hours after exposure. A small cotton ball soaked in sucrose solution was added on the screen top of the petri-dish as a drinking source. Mortality was evaluated at 24 hours after exposure.
# as §3, with “female Culex quinquefasciatus mosquitoes were” for “female Culex mosquitoes were”, “intervals through 2 hours after” for “intervals through 3 hours after”, “solution was then added on” for “solution was added on”
# as §3, with “Culex quinquefasciatus” for “Culex”, “hourly intervals.” for “intervals through 3 hours after exposure.”, “source after 2 hours.” for “source.”
# [9] = test system: Odorous House ant, Tapinoma sessile; experiment: Knockdown/mortality of ant workers under continuous exposure on treated glazed tile; type: in vivo; details: fipronil 0.001% (FIG. 45); ethiprole 0.01% (FIG. 53); with or without adjuvant
# From the text: Actual coverage was about 5″×5″ (or 161 cm2) for easy handling. Treatments were allowed to dry overnight. […] Treatments were replicated minimum three times.
# as §1, §2
# Treatments were allowed to dry overnight. […] Treatments were replicated minimum of three times. […] The results are shown in FIG. 84 (No adjuvant alone treatment was performed).
# [10] = test system: susceptible/normal German cockroach (Monheim strain), Blattella germanica; experiment: Knockdown/mortality of male cockroaches under continuous exposure on treated glazed tile; type: in vivo; details: fipronil 0.001% (FIG. 48); ethiprole 0.01% (FIG. 55); with or without adjuvant
# Protocol: Treatments were allowed to dry overnight. […] Treatments were replicated a minimum of three times. […]
# Treatments were allowed to dry overnight. […] Treatments were replicated a minimum of three times. Cockroach knockdown/mortality was evaluated at 5 minute intervals for the first 60 minutes after exposure and then at 2, 18 and 24 hours.
compound,measurement,setting,value
CC1(C)[C@H](C(=O)O[C@H](C#N)c2cccc(Oc3ccccc3)c2)[C@@H]1C=C(Br)Br [0.0000256% DTM],% Mortality after,[1]; 15′,10%
same,% Mortality after,[1]; 30′,20%
same,% Mortality after,[1]; 1 h,30%
same,% Mortality after,[1]; 2 h,20%
same,% Mortality after,[1]; 4 h,20%
same,% Mortality after,[1]; 1 d,60%
Cc1ccc(O)c(-n2nc3ccccc3n2)c1 [0.5% Compound B],% Mortality after,[1]; 15′,0%
same,% Mortality after,[1]; 30′,0%
same,% Mortality after,[1]; 1 h,0%
same,% Mortality after,[1]; 2 h,0%
same,% Mortality after,[1]; 4 h,0%
same,% Mortality after,[1]; 1 d,60%
same,% knock down after,[2]; 15′,0%
same,% knock down after,[2]; 30′,0%
same,% knock down after,[2]; 1 h,0%
same,% knock down after,[2]; 1.5 h,0%
same,% knock down after,[2]; 2 h,0%
same,% knock down after,[2]; 3 h,0%
same,% knock down after,[2]; 4 h,0%
same,% knock down after,[2]; 6 h,0%
same,% knock down after,[2]; 1 d,70%
"CC1(C)C(C=C(Cl)Cl)C1C(=O)OC(C#N)c1ccc(F)c(Oc2ccccc2)c1 (stereo not drawn) [β-cyfluthrin, reference compound]",toxicity / efficacy of the substance alone (summary in words),[3],"100% knockdown, or nearly 100% knockdown even in the absence of the adjuvant"
same,toxicity / efficacy of the substance alone (summary in words),"[4]; Argentine ant, treated glazed tile",extremely effective at killing the ants
same,Log P,[5],5.9
same,Likelihood of Direct Insect Cuticular Penetration,[6],Fast (classified as “FAST” when it has a Log P value of about >4.0)
CC1(C)C(C=C(Br)Br)C1C(=O)OC(C#N)c1cccc(Oc2ccccc2)c1 (centres unmarked) [0.000128% DTM],% Mortality after,[1]; 15′,20%
same,% Mortality after,[1]; 30′,50%
same,% Mortality after,[1]; 1 h,70%
same,% Mortality after,[1]; 2 h,70%
same,% Mortality after,[1]; 4 h,80%
same,% Mortality after,[1]; 1 d,50%
CNC(=O)Oc1cccc2ccccc12 [carbaryl],Log P,[5],2.8
same,Likelihood of Direct Insect Cuticular Penetration,[6],Intermediate (classified as “INTERMEDIATE” when the Log P value is between about 2.0 and about 4.0)
CCC(C)(C)C(=O)OC1=C(c2ccc(Cl)cc2Cl)C(=O)OC12CCCCC2 [spirodiclofen],Log P,[5],5.8
same,Likelihood of Direct Insect Cuticular Penetration,[6],Fast (classified as “FAST” when it has a Log P value of about >4.0)
CCOC(=O)NCCOc1ccc(Oc2ccccc2)cc1 [fenoxycarb],Log P,[5],4.1
same,Likelihood of Direct Insect Cuticular Penetration,[6],Fast (classified as “FAST” when it has a Log P value of about >4.0)
CN1COCN(Cc2cnc(Cl)s2)/C1=N\[N+](=O)[O-] [thiamethoxam],Log P,[5],0.1
same,Likelihood of Direct Insect Cuticular Penetration,[6],Slow (classified as “SLOW” when the compound has a Log P value of about <2.0)
N#C/N=C1\SCCN1Cc1ccc(Cl)nc1 [thiacloprid],Log P,[5],1.3
same,Likelihood of Direct Insect Cuticular Penetration,[6],Slow (classified as “SLOW” when the compound has a Log P value of about <2.0)
"N#Cc1nn(-c2c(Cl)cc(C(F)(F)F)cc2Cl)c(N)c1[S+]([O-])C(F)(F)F (single isomer, unassigned) [fipronil, reference compound]",time at which 100% mortality was seen,[4]; fipronil 0.001% with or without adjuvant (FIG. 43),around 25 hours
same,Log P,[5],4.0
same,Likelihood of Direct Insect Cuticular Penetration,[6],Fast (classified as “FAST” when it has a Log P value of about >4.0)
same,time to a relatively high percentage of mortality (around 80%),[7],around 20 hours
same,mortality at 24 hours (FIG. 44),[8],around 50%
same,time at which 100% mortality was observed,[9],25 h
same,mortality at 25 hours,[10],around 40%
CCOC(=O)CC(SP(=S)(OC)OC)C(=O)OCC (centres unmarked) [malathion],Log P,[5],2.7
same,Likelihood of Direct Insect Cuticular Penetration,[6],Intermediate (classified as “INTERMEDIATE” when the Log P value is between about 2.0 and about 4.0)
O=C(NC(=O)c1ccccc1Cl)Nc1ccc(OC(F)(F)F)cc1 [triflumuron],Log P,[5],4.9
same,Likelihood of Direct Insect Cuticular Penetration,[6],Fast (classified as “FAST” when it has a Log P value of about >4.0)
pyrethrin,Log P,[5],4.3
same,Likelihood of Direct Insect Cuticular Penetration,[6],Fast (classified as “FAST” when it has a Log P value of about >4.0)
CC(C)=CC1C(C(=O)OCc2coc(Cc3ccccc3)c2)C1(C)C (centres unmarked) [resmethrin],toxicity / efficacy of the substance alone (summary in words),[3],did not provide mosquito knockdown
same,Log P,[5],5.4
same,Likelihood of Direct Insect Cuticular Penetration,[6],Fast (classified as “FAST” when it has a Log P value of about >4.0)
Cc1c(COC(=O)[C@@H]2[C@H](/C=C(\Cl)C(F)(F)F)C2(C)C)cccc1-c1ccccc1 (racemic) [bifenthrin],Log P,[5],6.0
same,Likelihood of Direct Insect Cuticular Penetration,[6],Fast (classified as “FAST” when it has a Log P value of about >4.0)
CC1(C)[C@H](C(=O)O[C@H](C#N)c2cccc(Oc3ccccc3)c2)[C@@H]1C=C(Br)Br [0.00064% DTM],% Mortality after,[1]; 15′,100%
same,% Mortality after,[1]; 30′,100%
same,% Mortality after,[1]; 1 h,100%
same,% Mortality after,[1]; 2 h,100%
same,% Mortality after,[1]; 4 h,100%
same,% Mortality after,[1]; 1 d,80%
